Data published in patent US9284303B2, “Benzimidazole cannabinoid agonists bearing a substituted heterocyclic group” (priority 2006, dated 2016).

What was measured:
[1] = target: T1, human CB1 (hCB1) receptor (Homo sapiens, UniProt P21554); experiment: Inhibition of forskolin-activated cAMP production upon activation of hCB1 (HTRF), CHO-K1 cells; assay type: cell-based; settings: forskolin-activated cAMP, pEC50=-log(EC50); for EC50: CB1 pEC50, hCB1-CHO-K1 cells
T1 construct: expressed in transfected cells; host or cells: CHO-K1
Summary of the method: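 CHO-K1 cells stably expressing hCB1 (20,000/well) were in HBSS stimulation buffer (1 mM IBMX, 10 mM MgCl2, 0.1% BSA, pH 7.4), with 6 μM forskolin in the compound buffer, 30 min at room temperature in the dark. cAMP was read as HTRF 665/620 ratio, normalized to DMSO and CP55490. Outputs were pEC50 and inhibition at 10 μM relative to CP55490.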

[2] = target: T2, human CB2 (hCB2) receptor (Homo sapiens, UniProt P34972); experiment: Inhibition of forskolin-activated cAMP production upon activation of hCB2 (HTRF), CHO-K1 cells; assay type: cell-based; settings: for ratio CB2 agonism over CB1 agonism: Table C-1, selectivity hCB2 over hCB1; for EC50: hCB2-CHO-K1 cells, forskolin-activated cAMP, pEC50=-log(EC50), read-out: CB2 pEC50 (converted)
T2 construct: expressed in transfected cells; host or cells: CHO-K1
T2 sequence (P34972 whole entry): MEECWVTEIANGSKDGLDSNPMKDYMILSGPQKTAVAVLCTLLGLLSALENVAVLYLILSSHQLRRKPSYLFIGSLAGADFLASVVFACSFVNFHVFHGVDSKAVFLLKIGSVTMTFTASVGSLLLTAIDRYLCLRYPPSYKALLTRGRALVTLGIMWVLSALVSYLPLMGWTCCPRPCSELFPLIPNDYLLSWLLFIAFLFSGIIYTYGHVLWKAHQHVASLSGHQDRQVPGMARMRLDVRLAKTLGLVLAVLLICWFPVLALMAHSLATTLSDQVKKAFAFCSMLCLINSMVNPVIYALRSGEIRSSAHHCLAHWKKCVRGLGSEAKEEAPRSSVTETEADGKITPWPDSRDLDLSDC

T1 sequence (P21554 whole entry): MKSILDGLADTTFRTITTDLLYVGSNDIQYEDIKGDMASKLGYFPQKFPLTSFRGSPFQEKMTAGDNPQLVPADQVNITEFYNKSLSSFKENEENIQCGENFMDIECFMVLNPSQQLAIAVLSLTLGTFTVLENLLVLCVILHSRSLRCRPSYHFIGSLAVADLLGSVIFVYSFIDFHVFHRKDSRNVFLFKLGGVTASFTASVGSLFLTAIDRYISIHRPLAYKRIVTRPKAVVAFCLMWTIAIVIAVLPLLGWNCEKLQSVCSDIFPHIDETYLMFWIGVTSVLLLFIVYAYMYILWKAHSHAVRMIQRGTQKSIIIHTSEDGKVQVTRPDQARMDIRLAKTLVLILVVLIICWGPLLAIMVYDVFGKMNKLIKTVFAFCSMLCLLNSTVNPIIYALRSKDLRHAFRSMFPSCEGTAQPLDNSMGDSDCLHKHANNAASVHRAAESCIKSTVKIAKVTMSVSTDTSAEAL

COc1ccc(S(=O)(=O)c2ccc3c(c2)nc(C(C)(C)C)n3CC2CCOCC2)cn1 [Co. No. 52]
EC50 [1]: 229 nM | melting point: 198 °C | ratio CB2 agonism over CB1 agonism ([2]; listed as 52): 331 | EC50 [2]: 0.692 nM

Cc1cc(S(=O)(=O)c2ccc3c(c2)nc(C(C)(C)C)n3CC2CCOCC2)cc[n+]1[O-] [Co. No. 89]
EC50 [1]: > 10000 nM | melting point: 215.3 °C | EC50 [2]: 11.2 nM

CC(C)(C)c1nc2cc(S(=O)(=O)c3ccnc(C(N)=O)c3)ccc2n1CC1CCOCC1 [Co. No. 16]
EC50 [1]: 851 nM | melting point: 247.1 °C | ratio CB2 agonism over CB1 agonism [2]: 359 | EC50 [2]: 2.34 nM

CC(C)(C)c1nc2cc(S(=O)(=O)c3cncc(C#N)c3)ccc2n1CC1CCCCC1 [Co. No. 36]
EC50 [1]: 72.4 nM | melting point: 215 to 216 °C | ratio CB2 agonism over CB1 agonism [2]: 108 | EC50 [2]: 0.676 nM

Cc1nc(-c2csc(S(=O)(=O)c3ccc4c(c3)nc(C(C)(C)C)n4CC3CCOCC3)c2)no1 [Co. No. 5]
EC50 [1]: 257 nM | melting point: 192 to 193 °C | ratio CB2 agonism over CB1 agonism [2]: 676 | EC50 [2]: 0.372 nM

CC(C)(C)c1nc2cc(S(=O)(=O)c3ccc(S(=O)(=O)N4CCOCC4)s3)ccc2n1CC1CCOCC1 [Co. No. 7]
EC50 [1]: > 10000 nM | melting point: 198 °C | ratio CB2 agonism over CB1 agonism [2]: >5495 | EC50 [2]: 1.82 nM

CC(C)(C)c1nc2cc(S(=O)(=O)c3ccnc(C#N)c3)ccc2n1CC1CCOCC1 [Co. No. 17]
EC50 [1]: 9330 nM | melting point: 201.2 °C | ratio CB2 agonism over CB1 agonism ([2]; listed as 17): 5821 | ratio CB2 over CB1 agonism ([2]; Table C-3, comparison of art compounds A to E with compounds of the invention): 5821 | EC50 [2]: 1.58 nM

CC(C)(C)c1nc2cc(S(=O)(=O)c3ccc(C(C)(C)O)s3)ccc2n1CC1CCOCC1 [Co. No. 53]
EC50 [1]: 2240 nM | melting point: 258 °C | ratio CB2 agonism over CB1 agonism [2]: 607 | EC50 [2]: 3.72 nM

CC(C)(C)c1nc2cc(S(=O)(=O)c3sc(S(C)(=O)=O)cc3Br)ccc2n1CC1CCOCC1 [Co. No. 62]
EC50 [1]: 1950 nM | melting point: 200 °C | ratio CB2 agonism over CB1 agonism ([2]; listed as 62): 3299 | EC50 [2]: 0.589 nM

Cn1nc(S(=O)(=O)c2ccc3c(c2)nc(C(C)(C)C)n3CC2CCOCC2)ccc1=O [Co. No. 100]
EC50 [1]: 1000 nM | melting point: 224.3 °C | ratio CB2 agonism over CB1 agonism [2]: 631 | EC50 [2]: 1.58 nM

CC(C)(C)c1nc2cc([S+]([O-])c3ccncc3Br)ccc2n1CC1CCOCC1 (centres unmarked) [Co. No. 88]
EC50 [1]: 1260 nM | melting point: 184.7 °C | ratio CB2 agonism over CB1 agonism [2]: 537 | EC50 [2]: 2.34 nM

CC(C)(C)c1nc2cc(S(=O)(=O)c3ccnc(F)c3)ccc2n1CC1CCN(C=O)CC1 [Co. No. 112]
EC50 [1]: > 10000 nM | melting point: 196.7 °C | ratio CB2 agonism over CB1 agonism [2]: >2030 | EC50 [2]: 4.9 nM

CC(C)(C)c1nc2cc(S(=O)(=O)c3ccnc(OCCCO)c3)ccc2n1CC1CCOCC1 [Co. No. 152]
CB1 pEC50 ([1]; hCB1-CHO-K1 cells): 5.44 | melting point: 161.5 °C | ratio CB2 agonism over CB1 agonism [2]: 3090 | EC50 [2]: 1.17 nM

CO[C@H]1CC[C@@H](Cn2c(C(C)(C)C)nc3cc(S(=O)(=O)c4ccnc(F)c4)ccc32)CC1 [Co. No. 162]
EC50 [1]: > 10000 nM | melting point: 133.5 °C | ratio CB2 agonism over CB1 agonism [2]: >27542 | EC50 [2]: 0.363 nM

CC(=O)c1ccc(S(=O)(=O)c2ccc3c(c2)nc(C(C)(C)C)n3CC2CCOCC2)cn1 [Co. No. 50]
EC50 [1]: 4470 nM | melting point: 162 °C | ratio CB2 agonism over CB1 agonism [2]: 6457 | EC50 [2]: 0.692 nM

CC(C)(C)CCn1c(C(C)(C)C)nc2cc(S(=O)(=O)c3ccnc(F)c3)ccc21 [Co. No. 120]
EC50 [1]: > 10000 nM | melting point: 131.5 °C | ratio CB2 agonism over CB1 agonism [2]: >4365 | EC50 [2]: 2.29 nM

CCNS(=O)(=O)c1ccc(S(=O)(=O)c2ccc3c(c2)nc(C(C)(C)C)n3CC2CCOCC2)s1 [Co. No. 59]
EC50 [1]: 2290 nM | melting point: 158 °C | ratio CB2 agonism over CB1 agonism [2]: 2018 | EC50 [2]: 1.12 nM
